Tests used:
HeLa cells [1] = experiment: MTT anti-proliferation assay, HeLa; type: cell-based, human; settings: Homo sapiens, 48 h, mean ± SD
Method: All cell types, at a volume of 200 µL per well, were inoculated in 96-well plates at a density of 2.5 × 10^4 cells / mL and cultured for 24 h in an incubator with 5% CO2 at 37 °C. The old culture medium was replaced with 200 µL of fresh medium per well containing positive compounds, at concentrations of 1, 6.25, 12.5, 25, 50, and 100 μM. After 48 h of culture, 20 µL per well of 5 mg·mL^−1 MTT solution was added. After 4 h of culture, the old solution was discarded, and 150 µL per well of DMSO solution was added. Using an enzyme labeler (Thermo Fisher Scientific, Multiskan GO, Waltham, MA, USA), the plates were shaken for 10 min, OD values were determined at 490 nm, and the inhibition rate was calculated. Non-linear regression fitting of the cell growth rate was carried out using SPSS 23.0, and the IC50 of the compound was calculated. The inhibition rate was calculated using the formula: [(ODempty − ODtest)/(ODempty − ODnegative group)] × 100%, (ODempty blank group absorbance, ODtest absorbance of administration group, ODnegative group without cell culture medium). Each group contained six compound holes, and the experimental results averaged three trials. Complete medium containing only cells was used as the blank control; a complete medium without cells as was used as the negative control; and cisplatin, paclitaxel, and adriamycin were used as the positive controls. The concentration gradient was the same as that used for compounds 3a–3p. […]

SiHa cells = experiment: MTT anti-proliferation assay, SiHa; type: cell-based, human; settings: Homo sapiens, 48 h, mean ± SD
Method: (§1) All cell types, at a volume of 200 µL per well, were inoculated in 96-well plates at a density of 2.5 × 10^4 cells / mL and cultured for 24 h in an incubator with 5% CO2 at 37 °C. The old culture medium was replaced with 200 µL of fresh medium per well containing positive compounds, at concentrations of 1, 6.25, 12.5, 25, 50, and 100 μM. After 48 h of culture, 20 µL per well of 5 mg·mL^−1 MTT solution was added. After 4 h of culture, the old solution was discarded, and 150 µL per well of DMSO solution was added. Using an enzyme labeler (Thermo Fisher Scientific, Multiskan GO, Waltham, MA, USA), the plates were shaken for 10 min, OD values were determined at 490 nm, and the inhibition rate was calculated. Non-linear regression fitting of the cell growth rate was carried out using SPSS 23.0, and the IC50 of the compound was calculated. The inhibition rate was calculated using the formula: [(ODempty − ODtest)/(ODempty − ODnegative group)] × 100%, (ODempty blank group absorbance, ODtest absorbance of administration group, ODnegative group without cell culture medium). Each group contained six compound holes, and the experimental results averaged three trials. Complete medium containing only cells was used as the blank control; a complete medium without cells as was used as the negative control; and cisplatin, paclitaxel, and adriamycin were used as the positive controls. The concentration gradient was the same as that used for compounds 3a–3p.

C33A cells = experiment: MTT anti-proliferation assay, C33A; type: cell-based, human; settings: Homo sapiens, C-33-A, 48 h, mean ± SD
Method: as §1

[2] = test system: human cervical epithelial cells H8; experiment: MTT toxicity assay, normal cervical epithelial cells H8; type: cell-based; settings: Homo sapiens, Epithelial cell, 48 h, mean ± SD
Method: as §1

HeLa/DDP cells [3] = experiment: MTT anti-cisplatin-resistant cervical cancer activity, HeLa/DDP; type: cell-based, human; settings: 48 h; for resistance index (RI): HeLa/DDP versus parental HeLa; for IC50: Homo sapiens, HeLa/DDP, MTT, mean ± SD
Method: as §1
To mitigate the detrimental consequences arising from the fixation of resistance reversal agents, concentrations that yielded a tumor cell proliferation rate reduction of less than 10% were selected. Consequently, the inhibitory efficacy of compound 3k against HeLa/DDP cells was assessed in conjunction with cisplatin at concentrations of 0.25, 0.5, and 1 μM. The experimental procedure employed was akin to that elucidated in Section 3.3.2. The impact of verapamil (6 μM) and 3k (0.25, 0.5, and 1 μM) on P-gp expression was ascertained via Western blot experiments, employing the same methodology delineated in Section 3.3.4.

HeLa/DDP cells [4] = experiment: Annexin V-FITC/PI pro-apoptosis assay, HeLa/DDP; type: cell-based, human; settings: 24 h, 20 μM
Method: Cell fluid (2 mL per well) at a concentration of 1.5 × 10^5 cells / mL was added to a 6-well plate and cultured in a cell incubator with 5% CO2 at 37 °C for 24 h. The old solution was discarded; 2 mL of the medium containing compound 3k was added to each well at a concentration gradient of 2.5, 5, and 10 μM; and the experiment was repeated three times at each concentration. Complete medium containing only cells was used as a blank control group, and 20 μM of cisplatin injection and chalcone was used as a positive control. Cells were harvested following a 24 h incubation period, adhering to the guidelines provided with the BD kit (BD Biosciences Pharmingen, 556547, 10975 Torreyana Road, San Diego, CA, USA). Subsequently, the cells were subjected to staining in a light-restricted environment at ambient temperature for a duration of 15 min, followed by filtration and analysis via flow cytometry.
The pro-apoptotic experiments of compound 3k, cisplatin, and chalcone on HeLa/DDP were performed in the same way as in Section 3.3.3. Western Blotting Analysis in the same way as in Section 3.3.4.

HeLa cells [5] = experiment: Transwell migration assay, HeLa; type: cell-based, human; settings: 24 h, 20 μM, control 1176
Method: (§2) HeLa (5 × 10^4 cells) was suspended in 200 μL of FBS-free medium. The top chamber contained the vehicle and various concentrations of compound 3k (2.5, 5, and 10 μM), cisplatin (20 μM) and chalcone (20 μM). The lower chamber was filled with 600 μL of medium containing 10% FBS. After incubating at 37 °C for 24 h, the cells on the top side of the Transwell membrane were removed with a cotton tip. Cells were fixed and stained with 4% paraformaldehyde (LEAGENE BIOTECHNOLOGY, Cat:DF0135, Lot:0823A23, Zhongguancun, Haidian District, Beijing, China) and 0.1% crystal violet solutions (Leagene Biotechnology, Cat:DZ0055, Lot:0508A23, Zhongguancun, Haidian District, Beijing, China) for 30 min to fix cells trapped on the perforated side of the membrane.

HeLa cells [6] = experiment: Transwell Matrigel invasion assay, HeLa; type: cell-based, human; settings: 24 h, 20 μM
Method: (§3) The Transwell ([…], Corning Incorporated, New York, NY, USA) was precoated using 50 μL Matrigel for 5 h at 37 °C to achieve solidification. HeLa cells was collected and suspended in a serum-free medium containing varying concentrations (0, 2.5, 5, and 10 μM) of compound 3k, along with 20 μM cisplatin and chalcone. These cell suspensions were then added to the upper wells of a permeabilization chamber at a density of 5 × 10^5 cells/mL. In the lower wells, 600 μL of DMEM containing 10% FBS was added, which had been prepared using 50 μL of Matrigel (diluted 1:8 with serum-free medium from Corning/BD Biosciences). After 24 h of incubation at 37 °C, the invasion cells were fixed using 4% paraformaldehyde and stained using 0.1% crystal violet for 30 min. Then, the chambers were washed using PBS and left to dry. Images were photographed using an inverted fluorescence microscope (Leica Instruments Co., Ltd., Microsystems CMS GmbH, Weizler, Hesse, Germany) and counted using Image J software (V1.8.0.112) for three independent fields randomly.

HeLa/DDP cells [7] = experiment: Transwell migration assay, HeLa/DDP; type: cell-based, human; settings: 24 h, 20 μM, control 497
Method: as §2
(§4) The experimental methods for the effects of compound 3k, cisplatin, and chalcone on HeLa/DDP cell invasion and migration were the same as in Section 3.3.6.

HeLa/DDP cells [8] = experiment: Transwell Matrigel invasion assay, HeLa/DDP; type: cell-based, human; settings: 24 h, 20 μM, control 399
Method: as §3, §4

[9] = test system: α-tubulin, β-tubulin in HeLa cells; experiment: Immunofluorescence assay of microtubules, HeLa; type: cell-based, human; settings: 24 h, 3k 1, 2, and 4 μM, colchicine and paclitaxel 2.0 μM
Method: (§5) The cells were then fixed by adding 400 μL of 4% paraformaldehyde to each well and incubating for 30 min. 0.1% Triton was added at a volume of 400 μL per well and allowed to incubate for 10 min. Following this, goat serum (10%) was added at 400 μL per well and incubated for 40 min. Primary antibodies (α-tubulin, β-tubulin) were then incubated overnight at a temperature of 4 °C. Subsequently, secondary antibodies (α-mouse, β-rabbit) were incubated for 1.5 h. DAPI staining was performed at 400 μL per well for 5 min, followed by a wash with PBS. Cell climbing tablets were removed and inverted onto slides with sealer. Photographs were captured using a fluorescent inverted microscope.

[10] = test system: α-tubulin, β-tubulin in HeLa/DDP cells; experiment: Immunofluorescence assay of microtubules, HeLa/DDP; type: cell-based, human; settings: 24 h, 3k 1, 2, and 4 μM, paclitaxel 2.0 μM
Method: as §5

[11] = test system: α-/β-tubulins in HeLa cells; experiment: Western blot of polymerized and dissociated α-/β-tubulins, HeLa; type: cell-based, human; settings: 24 h, versus control
Method: (§6) HeLa cells were cultured in 60 mm Petri dishes at a density of 1.0 × 10^6 cells per dish and treated with 0.1% DMSO (vehicle), positive control chalcone (20 μM), and different concentrations of compound 3k (2.5, 5, and 10 μM), respectively. Following a 24 and 48 h incubation period, the cells were harvested via centrifugation and subsequently washed twice with PBS that had been chilled to 0 °C. Next, the cells were homogenized using RIPA lysis buffer (Solarbio, Beijing, China) and supplemented with 1% PMSF (MP Biomedicals, 0754-25G, CAS:329-98-6, Santa Ana, CA, USA) and 1% mixed phosphatase inhibitor (Solarbio, Beijing, China). The resulting lysates were then incubated on ice for 30 min, intermittently vortexed every 5 min, and subsequently centrifuged at 12,000 rpm for 20 min to collect the supernatants.
(§7) Subsequently, the protein concentrations were determined utilizing a BCA Protein Assay Kit (Solarbio, China). An equivalent quantity of the proteins (12 μg) was fractionated via 8–12% sodium dodecyl sulfate–polyacrylamide gel electrophoresis (SDS-PAGE) and transferred onto nitrocellulose membranes (Amersham Biosciences, Amersham, UK). Following this, the membranes were obstructed with 5% nonfat dried milk in TBS containing 1% Tween-20 for a duration of 2 h at ambient temperature and were subjected to overnight incubation with specific primary antibodies (CST, Boston, MA, USA) at 4 °C. Following three washes in TBST, the membranes were subjected to incubation with the suitable HRP-conjugated secondary antibodies at ambient temperature for a duration of 2 h. The blots were subsequently visualized using enhanced chemiluminescence (Biosharp, Shanghai, China) and detected utilizing a PE 0723 imager (ProteinSimple, Silicon Valley, CA, USA). Each experiment was conducted in triplicate at minimum and analyzed employing Image J software (V1.8.0.112). β-actin(ab198991) rabbit mAb, goat anti-rabbit IgG (H + L) HRP—#S0001 (Affinity). Bax (ab289364), Bcl-2 (ab218123), MDR1/ABCB1 (E1Y7B) rabbit mAb #13342 (CST).
(§8) Polymerized and free microtubule proteins were extracted using the methods described in references, respectively. Following drug intervention, the cells were subjected to two washes with preheated microtubule protein buffer MTSB at 37 °C. Subsequently, 70 μL of MTSB was added, and the cells were lysed for 10 min at 37 °C in a constant temperature chamber shielded from light. The cells were then scraped with a spatula and centrifuged at 14,000 r/min for 10 min at room temperature. The resulting supernatant, which represented the free state microtubule protein suspension, was subsequently removed. The remaining precipitate was treated with RIPA lysis solution, followed by lysis on ice for a duration of 30 min. Subsequently, centrifugation was performed at a temperature of 4 °C and a speed of 12,000 revolutions per minute for a duration of 20 min. The resulting supernatant was collected as a suspension of polymerized microtubule protein. The Western blotting procedure was the same as in Section 3.3.4. α-Tubulin (DM1A) Mouse mAb#3873 (CST), β-Tubulin (D2N5G) Rabbit mAb #15115 (CST), CoraLite488-conjugated Goat Anti-Mouse lgG(H+L) (Proteintech); CoraLite488-conjugated Goat Anti-Rabbit lgG(H+L) (Proteintech); β-actin(ab198991) rabbit mAb, Goat Anti-Mouse IgG H&L (HRP) (ab6789); Goat anti-Rabbit IgG (H+L) HRP—#S0001 (Affinity).

[12] = test system: α-/β-tubulins in HeLa/DDP cells; experiment: Western blot of polymerized and dissociated α-/β-tubulins, HeLa/DDP; type: cell-based, human; settings: 24 h, versus control
Method: as §6, §7, §8

IC50 (HeLa cells [1]) [µM] | IC50 (HeLa/DDP cells [3]) [µM] | SMILES | IC50 (SiHa cells) [µM] | IC50 (C33A cells) [µM] | IC50 [2] [µM] | resistance index (RI) (HeLa/DDP cells [3]) | pro-apoptotic rate (HeLa/DDP cells [4]) [%] | number of migrated cells (HeLa cells [5]) | number of cells undergoing invasion (HeLa cells [6]) | number of migrated cells (HeLa/DDP cells [7]) | number of invasion cells (HeLa/DDP cells [8]) | microtubule immunofluorescence (α green, β red) [9] | microtubule immunofluorescence (α green, β red) [10] | expression of dissociated state α and β microtubule proteins ([11]; 3k 4 μM, colchicine 2 μM, paclitaxel 2.0 μM) | expression of α and β microtubule proteins in the polymerized state ([11]; 3k 2 and 4 μM, colchicine and paclitaxel 2.0 μM) | expression of dissociated state α and β microtubule proteins ([12]; 3k 4 μM, colchicine and paclitaxel 2.0 μM) | expression of polymerized state α and β microtubule proteins ([12]; positive drugs 2.0 μM)
67 ± 4.56 | 88 ± 7.27 | O=C(/C=C/c1ccccc1)c1ccccc1 [Chalcone, (E)-chalcone] | 62 ± 1.84 | 37.5 ± 1.5 | 78.5 ± 7.78 | 1.31 | 13.8 | 689 | 422 | 319 | 347 |  |  |  |  |  | 
23 ± 1.33 | 130 ± 5.84 | CC(=O)O[C@H]1C(=O)[C@@]2(C)[C@H]([C@H](OC(=O)c3ccccc3)[C@]3(O)C[C@H](OC(=O)[C@H](O)[C@@H](NC(=O)c4ccccc4)c4ccccc4)C(C)=C1C3(C)C)[C@]1(OC(C)=O)CO[C@@H]1C[C@@H]2O [Paclitaxel, paclitaxel] |  |  |  | 5.66 |  |  |  |  |  | fluorescence intensity of microtubules surrounding the cells decreased or vanished | no significant alteration in the fluorescence intensity of the microtubules surrounding the cells | significantly decreased | significantly enhanced | minimal impact | did not yield a significant impact
